Reference: patent US8932563B2, “Higher loading zinc-containing films” (Colgate-Palmolive Company, priority 2009, dated 2015)

Experiment: Zinc uptake from toothpaste onto artificial soft substrate
Type: in vitro ADME
Conditions: for zinc uptake, ppm: Vitro-Skin incubated 1 hour, 1:2 dilution
Procedure: Zinc uptake experiments were performed to compare the amount of zinc delivered to an artificial soft substrate using the same level of zinc oxide films in toothpaste with different loadings. The films (Zn30 and Zn50) were incorporated into a MaxFresh Nite toothpaste base. The experiments included comparing:
Certain parameters for testing were kept constant for the experiments. They included:
Vitro-Skin incubated for 1 hour
1:2 dilution of toothpaste to deionized water
Two 5 mL washes of deionized water for 10 seconds
There also was an increase in binding with an increase in film concentration. The zinc uptake method quantifies the amount of zinc delivered to a soft substrate. Vitro-Skin was used as a model substrate because it mimics human skin. […] Also the films act as a delivery vehicle to deposit more zinc onto the substrate than its equivalent in powder form.

[1] = 1.0% film or powder in toothpaste

## [O-2].[Zn+2] [ZnO Powder, Zinc Oxide]
0.15% powder in toothpaste
  zinc uptake, μg/cm^2: 5.7 μg/cm^2
  zinc uptake, ppm: 2.05 ppm
[1]
  zinc uptake, μg/cm^2: 21.5 μg/cm^2
  zinc uptake, ppm: 59.7 ppm
